# Molecular target: T1, RIPK2 enzyme (Homo sapiens, UniProt O43353)
# T1 construct: purchased Carna 09-128
# Assay: RIPK2 inhibition (ADP-Glo Kinase Assay)
# Assay type: biochemical
# Conditions: RIPK2 5 nM, ATP 150 μM, MBP substrate, read-out: RIPK2 IC50
# Procedure, shortened: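 Human RIPK2 (5 nM) preincubated with compound 30 min at room temperature in 50 mM HEPES pH 7.5, 10 mM MgCl2, 2 mM DTT, 1 mM EGTA, 0.01% Brij-35, 0.05% BSA; native swine MBP as substrate. ADP formed quantified by ADP-Glo luminescence; percent inhibition relative to DMSO and no-enzyme controls.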
# T1 sequence (O43353 1-299 limits assumed): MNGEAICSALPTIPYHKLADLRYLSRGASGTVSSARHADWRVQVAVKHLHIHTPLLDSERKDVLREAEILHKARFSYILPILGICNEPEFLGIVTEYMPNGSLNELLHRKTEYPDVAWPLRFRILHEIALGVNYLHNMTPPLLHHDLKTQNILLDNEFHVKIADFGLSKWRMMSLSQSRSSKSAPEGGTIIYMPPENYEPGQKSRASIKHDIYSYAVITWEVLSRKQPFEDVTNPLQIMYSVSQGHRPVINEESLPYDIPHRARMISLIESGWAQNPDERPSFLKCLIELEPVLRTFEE
row,Structure (SMILES),IC50
1,"Cc1cc(CC(=O)Nc2cnn(C(C)(C)C)c2)c(F)cc1Oc1ccnc2ccc(C(C)(C)C#N)cc12 [Compound 411, N-(1-(tert-butyl)-1H-pyrazol-4-yl)-2-(4-((6-(2-cyanopropan-2-yl)quinolin-4-yl)oxy)-2-fluoro-5-methylphenyl)acetamide]",< 2.5 nM
2,"COc1cc2nccc(Oc3cc(F)c(CC(=O)Nc4cnn(C(C)(C)C)c4)cc3C)c2cc1S(C)(=O)=O [Compound 412, N-(1-(tert-butyl)-1H-pyrazol-4-yl)-2-(2-fluoro-4-((7-methoxy-6-(methylsulfonyl)quinolin-4-yl)oxy)-5-methylphenyl) acetamide]",< 2.5 nM
3,"Cc1cc(CC(=O)Nc2cnn(C(C)(C)C)c2)c(F)cc1Oc1ccnc2ccc(N3CCOC3=O)cc12 [Compound 414, N-(1-(tert-butyl)-1H-pyrazol-4-yl)-2-(2-fluoro-5-methyl-4-((6-(2-oxooxazolidin-3-yl)quinolin-4-yl)oxy)phenyl) acetamide]",< 2.5 nM
4,"Cc1cc(CC(=O)Nc2cnn(C(C)(C)C)c2)c(F)cc1Oc1ccnc2ccc(S(=O)(=O)CC(C)(C)O)cc12 [Compound 415, N-(1-(tert-butyl)-1H-pyrazol-4-yl)-2-(2-fluoro-4-((6-((2-hydroxy-2-methylpropyl)sulfonyl)quinolin-4-yl)oxy)-5-methylphenyl)acetamide]",< 2.5 nM
5,"Cc1cc(CC(=O)Nc2cnn(C(C)(C)C)c2)c(F)cc1Oc1ccnc2ccc(S(=O)(=O)C3CC3)cc12 [Compound 416, N-(1-(tert-butyl)-1H-pyrazol-4-yl)-2-(4-((6-(cyclopropylsulfonyl)quinolin-4-yl)oxy)-2-fluoro-5-methylphenyl)acetamide]",< 2.5 nM
6,"CCS(=O)(=O)c1ccc2nccc(Oc3ccc(CC(=O)Nc4cnn(C(C)(C)C)c4)cc3C(F)F)c2c1 [Compound 417, N-(1-(tert-butyl)-1H-pyrazol-4-yl)-2-(3-(difluoromethyl)-4-((6-(ethylsulfonyl)quinolin-4-yl)oxy)phenyl) acetamide]",< 2.5 nM
7,"CC(C)(C)n1cc(NC(=O)Cc2ccc(Oc3ccnc4ccc(S(=O)(=O)C5CC5)cc34)c(C(F)F)c2)cn1 [Compound 418, N-(1-(tert-butyl)-1H-pyrazol-4-yl)-2-(4-((6-(cyclopropyl-sulfonyl)quinolin-4-yl)oxy)-3-(difluoromethyl)phenyl)acetamide]",< 2.5 nM
8,"Cc1cc(CC(=O)Nc2cnn(C(C)(C)C)c2)c(F)cc1Oc1ccnc2ccc(CN3CCNCC3)cc12 [Compound 419, N-(1-(tert-butyl)-1H-pyrazol-4-yl)-2-(2-fluoro-5-methyl-4-((6-(piperazin-1-ylmethyl)quinolin-4-yl)oxy)phenyl)acetamide]",< 2.5 nM
9,"Cc1cc(CC(=O)Nc2cnn(C(C)(C)C)c2)c(F)cc1Oc1ccnc2ccc(CN3C[C@@H]4C[C@H]3CN4)cc12 [Compound 420, 2-(4-((6-(((1S,4S)-2,5-diazabicyclo[2.2.1]heptan-2-yl)methyl)quinolin-4-yl)oxy)-2-fluoro-5-methylphenyl)-N-(1-(tert-butyl)-1H-pyrazol-4-yl)acetamide]",< 2.5 nM
10,"Cc1cc(CC(=O)Nc2cnn(C(C)(C)C)c2)c(F)cc1Oc1ccnc2ccc(CN3C[C@H]4C[C@@H]3CN4)cc12 [Compound 421, 2-(4-((6-(((1R,4R)-2,5-diazabicyclo[2.2.1]heptan-2-yl)methyl)quinolin-4-yl)oxy)-2-fluoro-5-methylphenyl)-N-(1-(tert-butyl)-1H-pyrazol-4-yl)acetamide]",< 2.5 nM
11,"Cc1cc(CC(=O)Nc2cnn(C(C)(C)C)c2)c(F)cc1Oc1ccnc2ccc(CN3C[C@@H]4C[C@H]3CO4)cc12 [Compound 422, 2-(4-((6-(((1S,4S)-2-oxa-5-azabicyclo[2.2.1]heptan-5-yl)methyl)quinolin-4-yl)oxy)-2-fluoro-5-methylphenyl)-N-(1-(tert-butyl)-1H-pyrazol-4-yl)acetamide]",< 2.5 nM
12,"Cc1cc(CC(=O)Nc2cnn(C(C)(C)C)c2)c(F)cc1Oc1ccnc2ccc(CN3C[C@H]4C[C@@H]3CO4)cc12 [Compound 423, 2-(4-((6-(((1R,4R)-2-oxa-5-azabicyclo[2.2.1]heptan-5-yl)methyl)quinolin-4-yl)oxy)-2-fluoro-5-methylphenyl)-N-(1-(tert-butyl)-1H-pyrazol-4-yl)acetamide]",< 2.5 nM
13,"Cc1cc(CC(=O)Nc2cnn(C(C)(C)C)c2)c(F)cc1Oc1ccnc2ccc(-c3ncccn3)cc12 [Compound 424, N-(1-(tert-butyl)-1H-pyrazol-4-yl)-2-(2-fluoro-5-methyl-4-((6-(pyrimidin-2-yl)quinolin-4-yl)oxy)phenyl)acetamide]",< 2.5 nM
14,"Cc1cc(CC(=O)Nc2cnn(C(C)(C)C)c2)c(F)cc1Oc1ccnc2ccc(-c3cnccn3)cc12 [Compound 425, N-(1-(tert-butyl)-1H-pyrazol-4-yl)-2-(2-fluoro-5-methyl-4-((6-(pyrazin-2-yl)quinolin-4-yl)oxy)phenyl)acetamide]",< 2.5 nM
15,"Cc1cc(CC(=O)Nc2cnn(C(C)(C)C)c2)c(F)cc1Oc1ccnc2ccc(-c3cccnn3)cc12 [Compound 426, N-(1-(tert-butyl)-1H-pyrazol-4-yl)-2-(2-fluoro-5-methyl-4-((6-(pyridazin-3-yl)quinolin-4-yl)oxy)phenyl)acetamide]",< 2.5 nM
16,"Cc1cc(CC(=O)Nc2cnn(C(C)(C)C)c2)c(F)cc1Oc1ccnc2ccc(-c3ncn(C)n3)cc12 [Compound 427, N-(1-(tert-butyl)-1H-pyrazol-4-yl)-2-(2-fluoro-5-methyl-4-((6-(1-methyl-1H-1,2,4-triazol-3-yl)quinolin-4-yl)oxy)phenyl)acetamide]",< 2.5 nM
17,"Cc1cc(CC(=O)Nc2cnn(C(C)(C)C)c2)c(F)cc1Oc1ccnc2ccc(-c3ncnn3C)cc12 [Compound 428, N-(1-(tert-butyl)-1H-pyrazol-4-yl)-2-(2-fluoro-5-methyl-4-((6-(1-methyl-1H-1,2,4-triazol-5-yl)quinolin-4-yl)oxy)phenyl)acetamide]",< 2.5 nM
18,"CCS(=O)(=O)c1ccc2nccc(Oc3cc(F)c(CC(=O)Nc4cnn(C(C)(C)C)c4)cc3Cl)c2c1 [Compound 430, N-(1-(tert-butyl)-1H-pyrazol-4-yl)-2-(5-chloro-4-((6-(ethylsulfonyl)quinolin-4-yl)oxy)-2-fluorophenyl)acetamide]",< 2.5 nM
19,"Cc1cc(CC(=O)Nc2nnc(C(C)(C)C)o2)ccc1Oc1ccnc2ccc(S(C)(=O)=O)cc12 [Compound 431, N-(5-(tert-butyl)-1,3,4-oxadiazol-2-yl)-2-(3-methyl-4-((6-(methylsulfonyl)quinolin-4-yl)oxy)phenyl) acetamide]",< 2.5 nM
20,"CC(C)(C)n1cc(NC(=O)Cc2ccc(Oc3ccnc4ccc(S(C)(=O)=O)cc34)c(C#N)c2)cn1 [Compound 432, N-(1-(tert-butyl)-1H-pyrazol-4-yl)-2-(3-cyano-4-((6-(methylsulfonyl)quinolin-4-yl)oxy)phenyl)acetamide]",2.8 nM
21,"Cc1cc(CC(=O)Nc2cnn(C(C)(C)C)c2)c(F)cc1Oc1ccnc2ccc(C(C)(C)O)cc12 [Compound 433, N-(1-(tert-butyl)-1H-pyrazol-4-yl)-2-(2-fluoro-4-((6-(2-hydroxypropan-2-yl)quinolin-4-yl)oxy)-5-methylphenyl)acetamide]",< 2.5 nM
22,"Cc1cc(CC(=O)Nc2cnn(C(C)(C)C)c2)c(F)cc1Oc1ncnc2ccc(C(N)=O)cc12 [Compound 434, 4-(4-(2-((1-(tert-butyl)-1H-pyrazol-4-yl)amino)-2-oxoethyl)-5-fluoro-2-methylphenoxy)quinazoline-6-carboxamide]",3 nM

# From patent US12624018B1, “Inhibitors of RIPK2 and medical uses thereof” (Odyssey Therapeutics, Inc., priority 2022, dated 2026)
